Assay results as given in patent publication US20230212279A1, “TREATMENT AND PREVENTION OF DISEASE CAUSED BY TYPE IV COLLAGEN DYSFUNCTION” (Singapore Health Services PTE, LTD., priority 2020, published 2023).
Entries after “also recorded” stand apart in the source; their conditions may differ.

Tests used:
[1] = test system: rheumatoid synovial cells; settings: rheumatoid synovial cells upon treatment; cited from earlier work
Col4a3-/- mice = settings: cited from earlier work
[2] = biological target: T1, mouse IL11 receptor IL11RA1 (mouse, UniProt Q64385 24-432); test: immunohistochemistry on mouse kidney sections (wild-type vs Il11ra1-/-)
T1 construct: whole, on cells; Endogenous protein detected in tissue sections; also called IL-11Rα
T1 sequence (looked up): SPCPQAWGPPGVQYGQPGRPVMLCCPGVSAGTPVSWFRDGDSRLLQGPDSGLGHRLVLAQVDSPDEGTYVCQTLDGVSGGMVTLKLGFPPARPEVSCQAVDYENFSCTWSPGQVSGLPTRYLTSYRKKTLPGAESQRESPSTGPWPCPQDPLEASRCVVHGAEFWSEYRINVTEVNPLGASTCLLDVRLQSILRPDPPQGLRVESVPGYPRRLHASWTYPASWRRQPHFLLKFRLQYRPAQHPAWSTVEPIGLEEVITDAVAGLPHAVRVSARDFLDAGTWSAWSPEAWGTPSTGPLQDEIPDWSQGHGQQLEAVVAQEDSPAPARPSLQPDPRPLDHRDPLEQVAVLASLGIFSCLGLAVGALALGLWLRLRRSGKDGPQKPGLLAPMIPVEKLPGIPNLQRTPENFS
Source text: FIGS. 2A to 2E. […] (2A-2C) Renal (2A) II11 RNA and (2B-2C) IL11 protein expression in wildtype and Col4a3^{-/-} mice. (2D) Immunohistochemistry staining of IL11RA with anti-IL11RA (X209) or IgG (11E10) as control on the kidneys of wild-type and II11ra1^{-/-} mice (scale bars, 20 μm). (2E) Comparison of II11ra1 and gp130 expression in mouse kidney cells based on single cell transcriptomic analysis by Park et. al.¹⁶. (2A) Data are shown as box-and-whisker with median (middle line), 25th-75th percentiles (box) and min-max values (whiskers), (2C) data are shown as mean±SD; 2-tailed Student's t-test. FC: fold change.
Kidneys were fixed in 10% neutral-buffered formalin (NBF), paraffinized, cut into 7 μm sections, incubated with primary antibodies overnight and visualized using an ImmPRESS HRP anti-rabbit IgG polymer detection kit (MP-7401, Vector Laboratories) with ImmPACT DAB Peroxidase Substrate (SK-4105, Vector Laboratories). Quantification of WT^+ve cells were performed in a blinded fashion from 4 images (200× field)/kidney (n=3-4 kidneys/group).

[3] = treatment of 4-week-old mice, prior to onset of proteinuria and tubulointerstitial fibrosis

COc1ccc2c(c1)c(CC(=O)O)c(C)n2C(=O)c1ccc(Cl)cc1 [indomethacin, reference compound]
expression of IL-11 [1]: reduction

CCOC(=O)[C@H](CCc1ccccc1)N[C@@H](C)C(=O)N1[C@H](C(=O)O)C[C@@H]2CCC[C@@H]21 [ramipril]
effect of delayed treatment (Col4a3-/- mice; treatment delayed until after proteinuria was established (6-week-old mice)): ineffective; also recorded: no beneficial effect | kidney dysfunction (Col4a3-/- mice; [3]): attenuated | lifespan (Col4a3-/- mice; [3]): prolonged

B1: anti-IL11RA antibody X209 (antibody, V domains shown)
VH: QVQLQQPGAELVRPGSSVKLSCKASGYTFTNYWMHWLKQRPVQGLEWIGNIGPSDSKTHYNQKFKDKATLTVDKSSSTAYMQLNSLTSEDSAVYYCARGDYVLFTYWGQGTLVTVSA
VL: DIVLTQSPATLSLSPGERATLSCRASQSISNNLHWYQQKSHEAPRLLIKYASQSISGIPARFSGSGSGTDFTLSFSSLETEDFAVYFCQQSYSWPLTFGQGTKLEIK
notes: also called Enx209; anti-IL11RA (X209, Aldevron)
binding result [2]: binds

B2: interferon-gamma: interferon-gamma (IFNγ) (protein, UniProt P01579 24-161, looked up)
Interferon gamma: QDPYVKEAENLKKYFNAGHSDVADNGTLFLGILKNWKEESDRKIMQSQIVSFYFKLFKNFKDDQSIQKSVETIKEDMNVKFFNSNKKKRDDFEKLTNYSVTDLNVQRKAIHELIQVMAELSPAAKTGKRKRSQMLFRG
expression of IL-11 [1]: reduction
